These molecules were tested against T1, hNav1.7 channels (Homo sapiens, UniProt Q15858) (assay: hNav1.7 channel in vitro patch-clamp assay). Conditions: stable HEK293 cell line expressing hNav1.7; whole cell patch-clamp.
T1 construct: host or cells: HEK293
Type: cell-based
Method: hNav1.7 Channel In Vitro Patch-Clamp Assay
Cells: Sable HEK293 (human embryonic kidney) cell line expressing hNav1.7 channels was used in the assay. The cell line was obtained from Millipore (Millipore Corporation, MA).
Patch-clamp recordings: The recordings were performed on QPatch HTX (Sophion Bioscience, Denmark) and/or conventional patch-clamp (Axon Multiclamp 700B systems, Molecular Devices, CA) platforms at room temperature, using whole cell patch-clamp techniques. The composition of extracellular solution was (in mM): HEPES 5, NaCl 40, KCl 3, CaCl2 1, MgCl2 1, Choline Chloride 100. Adjust pH to 7.2 with 1N NaOH, osmolarity to 300-310 mOsm with sucrose. The composition of intracellular solution was (in mM): HEPES 10, NaCl 10, Na2ATP 1, MgCl2 2, KF 135, EGTA 10. Adjust pH to 7.2 with 1N NaOH, osmolarity to 290-300 mOsm with sucrose.
For conventional patch-clamp, 35 mm culture dishes containing hNav1.7 cells were placed on the stage of an inverted microscope and continuously perfused with extracellular solution from a perfusion system (Biologic Rapid solution changer, RSC-160, ˜1 ml/min). […] The recordings were controlled by pCLAMP10 software. Test compounds were dissolved in 100% DMSO to make stock solutions for each test concentration, and then diluted into extracellular solution to achieve final concentration for testing. Final DMSO concentration was less than 0.3%. Two voltage protocols were used in hNav1.7 assay: for non-inactivated protocol, the sodium currents were elicited by a 2 ms pulse to −10 mV from a holding potential of −110 mV. For inactivated protocol, the holding potential was set at V1/2. The voltage was firstly stepped to −110 mV for 50 ms, then to −10 mV for 2 ms and then stepped back to holding potential. In both protocols the voltage command was given in every 10 s. Compound effect (% inhibition) was determined by difference in current amplitude before and after the application of test compounds. IC50 values were determined from concentration-response curves that were obtained with Hill fitting.
For QPatch HTX assay, hNav1.7 cells grown to 50%-80% confluence were rinsed with DPBS and dissociated with Tryple (Invitrogen, 12605-010). The dissociated cells were then mixed with extracellular solution. After centrifuge, the cells were resuspended in extracellular solution and used in the QPatch experiment. The whole-cell protocols, voltage protocols and application protocols were established with QPatch Assay Software 3.4 (Sophion Bioscience, Denmark). Only the inactivated protocol was used in the QPatch assay.

T1 sequence (Q15858 whole entry): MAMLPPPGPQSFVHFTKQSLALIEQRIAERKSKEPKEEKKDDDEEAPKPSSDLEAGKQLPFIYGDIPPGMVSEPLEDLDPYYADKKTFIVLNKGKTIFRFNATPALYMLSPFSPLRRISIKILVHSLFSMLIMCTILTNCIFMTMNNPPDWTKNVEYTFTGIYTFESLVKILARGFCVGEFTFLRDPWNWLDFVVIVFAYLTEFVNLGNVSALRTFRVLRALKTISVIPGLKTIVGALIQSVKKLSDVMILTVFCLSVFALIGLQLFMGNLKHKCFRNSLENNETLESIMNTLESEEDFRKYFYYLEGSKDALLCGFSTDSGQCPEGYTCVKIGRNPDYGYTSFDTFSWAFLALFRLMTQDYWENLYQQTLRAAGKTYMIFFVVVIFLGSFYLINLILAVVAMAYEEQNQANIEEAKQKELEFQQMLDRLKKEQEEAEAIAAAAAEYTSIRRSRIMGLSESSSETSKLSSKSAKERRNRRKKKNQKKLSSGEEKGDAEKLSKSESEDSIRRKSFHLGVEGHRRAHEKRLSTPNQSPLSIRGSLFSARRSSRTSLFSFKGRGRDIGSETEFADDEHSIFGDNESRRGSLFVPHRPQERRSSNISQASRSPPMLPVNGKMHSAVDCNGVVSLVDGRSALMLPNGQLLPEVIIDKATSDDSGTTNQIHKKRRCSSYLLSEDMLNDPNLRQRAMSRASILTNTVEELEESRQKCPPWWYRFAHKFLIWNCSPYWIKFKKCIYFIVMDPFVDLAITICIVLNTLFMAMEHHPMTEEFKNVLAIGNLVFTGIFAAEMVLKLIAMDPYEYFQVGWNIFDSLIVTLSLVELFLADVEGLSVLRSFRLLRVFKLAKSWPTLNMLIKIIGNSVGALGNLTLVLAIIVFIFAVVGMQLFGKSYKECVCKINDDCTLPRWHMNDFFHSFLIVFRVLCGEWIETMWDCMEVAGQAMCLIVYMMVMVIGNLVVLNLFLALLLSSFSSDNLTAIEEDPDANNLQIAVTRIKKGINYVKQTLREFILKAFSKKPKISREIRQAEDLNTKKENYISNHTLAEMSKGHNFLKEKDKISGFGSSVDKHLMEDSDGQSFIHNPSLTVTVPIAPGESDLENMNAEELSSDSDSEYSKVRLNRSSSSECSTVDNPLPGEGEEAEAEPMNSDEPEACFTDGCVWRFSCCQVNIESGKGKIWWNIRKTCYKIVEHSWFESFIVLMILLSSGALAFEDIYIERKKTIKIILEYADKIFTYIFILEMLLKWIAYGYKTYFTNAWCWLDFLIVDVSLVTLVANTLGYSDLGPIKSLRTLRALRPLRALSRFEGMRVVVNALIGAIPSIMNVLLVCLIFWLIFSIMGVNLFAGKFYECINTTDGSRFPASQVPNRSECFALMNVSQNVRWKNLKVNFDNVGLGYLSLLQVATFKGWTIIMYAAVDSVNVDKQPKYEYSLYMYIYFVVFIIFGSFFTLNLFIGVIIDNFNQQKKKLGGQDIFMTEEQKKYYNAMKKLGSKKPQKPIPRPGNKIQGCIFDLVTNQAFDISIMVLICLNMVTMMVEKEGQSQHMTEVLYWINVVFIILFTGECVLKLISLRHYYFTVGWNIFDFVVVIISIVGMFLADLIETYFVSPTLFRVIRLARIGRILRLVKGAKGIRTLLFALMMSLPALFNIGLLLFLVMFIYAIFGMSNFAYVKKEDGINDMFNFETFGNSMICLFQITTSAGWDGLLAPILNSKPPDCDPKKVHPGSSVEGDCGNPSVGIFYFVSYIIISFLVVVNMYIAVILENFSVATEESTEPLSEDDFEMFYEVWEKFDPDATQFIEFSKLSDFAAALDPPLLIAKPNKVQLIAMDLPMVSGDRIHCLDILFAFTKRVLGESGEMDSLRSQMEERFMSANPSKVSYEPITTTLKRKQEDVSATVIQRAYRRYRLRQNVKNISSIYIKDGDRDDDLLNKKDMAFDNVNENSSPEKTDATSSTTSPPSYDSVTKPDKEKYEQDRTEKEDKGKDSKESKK

| Compound | activity in the hNav1.7 patch-clamp assay (in words) |
| --- | --- |
| CC(C)COc1ncc(N2C(=O)C3(CC3)c3cc4c(NS(=O)(=O)N5CCC5)noc4cc32)cc1Cl [N-(7′-(5-chloro-6-isobutoxypyridin-3-yl)-6′-oxo-6′,7′-dihydrospiro[cyclopropane-1,5′-isoxazolo[4,5-f]indol]-3′-yl)azetidine-1-sulfonamide] | did not show any activity |

Same assay, conditions: stable HEK293 cell line expressing hNav1.7; whole cell patch-clamp (QPatch HTX and/or conventional), room temperature; voltage protocol not given

| Compound | IC50 [nM] |
| --- | --- |
| C[C@H](Oc1ncc(N2C(=O)C3(CC3)c3cc4c(NS(=O)(=O)C5CC5)noc4cc32)cc1Cl)c1ccc(F)cc1 [Example 18, (S)—N-(7′-(5-chloro-6-(1-(4-fluorophenyl)ethoxy)pyridin-3-yl)-6′-oxo-6′,7′-dihydrospiro[cyclopropane-1,5′-isoxazolo[4,5-f]indol]-3′-yl)cyclopropanesulfonamide] | 100 |
| O=C1N(c2cnc(OCC(F)(F)F)c(Cl)c2)c2cc3onc(NS(=O)(=O)C4CC4)c3cc2C12CC2 [Example 20, N-(7′-(5-chloro-6-(2,2,2-trifluoroethoxyl)pyridin-3-yl)-6′-oxo-6′,7′-dihydrospiro[cyclopropane-1,5′-isoxazolo[4,5-f]indol]-3′-yl)cyclopropanesulfonamide] | 500 |
| CC(C)COc1ncc(N2C(=O)C3(CC3)c3cc4c(NS(C)(=O)=O)noc4cc32)cc1Cl [Example 1, N-(7′-(5-chloro-6-isobutoxypyridin-3-yl)-6′-oxo-6′,7′-dihydrospiro[cyclopropane-1,5′-isoxazolo[4,5-f]indol]-3′-yl)methanesulfonamide] | 150 |
| O=C1N(c2cnc(OCC3CCCC3)c(Cl)c2)c2cc3onc(NS(=O)(=O)C4CC4)c3cc2C12CC2 [Example 27, N-(7′-(5-chloro-6-(cyclopentylmethoxy)pyridin-3-yl)-6′-oxo-6′,7′-dihydrospiro[cyclopropane-1,5′-isoxazolo[4,5-f]indol]-3′-yl)cyclopropanesulfonamide] | 90 |
| Cc1nn(-c2cnc(OCC(C)C)c(Cl)c2)c2cc3onc(NS(C)(=O)=O)c3cc12 [Example 44, N-(7-(5-chloro-6-isobutoxypyridin-3-yl)-5-methyl-7H-isoxazolo[4,54]indazol-3-yl)methanesulfonamide] | 100 |
| CC(C)COc1c(Cl)cc(N2C(=O)C3(CC3)c3cc4c(NS(C)(=O)=O)noc4cc32)cc1C#N [Example 32, N-(7′-(3-chloro-5-cyano-4-isobutoxyphenyl)-6′-oxo-6′,7′-dihydrospiro[cyclopropane-1,5′-isoxazolo[4,5-f]indol]-3′-yl)methanesulfonamide] | 900 |
| CC(C)COc1ncc(N2C(=O)C3(CCCCC3)c3cc4c(NS(=O)(=O)C5CC5)noc4cc32)cc1Cl [Example 39, N-(7′-(5-chloro-6-isobutoxypyridin-3-yl)-6′-oxo-6′,7′-dihydrospiro[cyclohexane-1,5′-isoxazolo[4,5-f]indol]-3′-yl)cyclopropanesulfonamide] | 700 |
| CC(C)COc1ncc(-n2cc(C(N)=O)c3cc4c(NS(=O)(=O)C5CC5)noc4cc32)cc1Cl [Example 49, 7-(5-chloro-6-isobutoxypyridin-3-yl)-3-(cyclopropanesulfonamido)-7H-isoxazolo[4,5-f]indole-5-carboxamide] | 1180 |
| CS(=O)(=O)Nc1noc2cc3c(cc12)C1(CC1)C(=O)N3c1cnc(OCC2CCOCC2)c(Cl)c1 [Example 12, N-(7′-(5-chloro-6-((tetrahydro-2H-pyran-4-yl)methoxy)pyridin-3-yl)-6′-oxo-6′,7′-dihydrospiro[cyclopropane-1,5′-isoxazolo[4,5-f]indol]-3′-yl)methanesulfonamide] | 2000 |
| CC(C)COc1ncc(N2CCOc3cc4c(NS(C)(=O)=O)noc4cc32)cc1Cl [Example 63, N-(8-(5-chloro-6-isobutoxypyridin-3-yl)-7,8-dihydro-6H-isoxazolo[5′,4′:4,5]benzo[1,2-b][1,4]oxazin-3-yl)methanesulfonamide] | 530 |
| CC(C)COc1ncc(N2C(=O)C3(CC3)c3cc4c(NS(N)(=O)=O)noc4cc32)cc1Cl [Example 8, N-(7′-(5-chloro-6-isobutoxypyridin-3-yl)-6′-oxo-6′,7′-dihydrospiro[cyclopropane-1,5′-isoxazolo[4,5-f]indol]-3′-yl)aminosulfonamide] | 2000 |
| CC(C)COc1ncc(-c2nccc3cc4c(NS(=O)(=O)N(C)C)noc4cc23)cc1Cl [Example 53, N-(8-(5-chloro-6-isobutoxypyridin-3-yl)isoxazolo[4,5-g]isoquinolin-3-yl)N—N-dimethylsulfamide] | 1070 |
| CC(C)COc1ncc(-n2cc(C#N)c3cc4c(NS(=O)(=O)C5CC5)noc4cc32)cc1Cl [Example 48, N-(7-(5-chloro-6-isobutoxypyridin-3-yl)-5-cyano-7H-isoxazolo[4,54]indol-3-yl)cyclopropanesulfonamide] | 220 |
| CC(C)COc1ncc(-n2c(=O)n(C)c3cc4c(NS(=O)(=O)C5CC5)noc4cc32)cc1Cl [Example 35, N-(7-(5-chloro-6-isobutoxypyridin-3-yl)-5-methyl-6-oxo-6,7-dihydro-5H-imidazo[4′,5′:4,5]benzo[1,2-d]isoxazol-3-yl)cyclopropanesulfonamide] | 100 |
| CC(C)COc1ncc(N2C(=O)C3(CC3)Oc3cc4c(NS(=O)(=O)C5CC5)noc4cc32)cc1Cl [Example 62, N-(8′-(5-chloro-6-isobutoxypyridin-3-yl)-7′-oxo-7′,8′-dihydrospiro[cyclopropane-1,6′-isoxazolo[5′,4′:4,5]benzo[1,2-b][1,4]oxazin]-3′-yl)cyclopropanesulfonamide] | 100 |
| CC(C)COc1ncc(N2C(=O)C3(CC3)c3cc4c(NS(=O)(=O)C5CC5)noc4cc32)cc1F [Example 22, N-(7′-(5-fluoro-6-isobutoxypyridin-3-yl)-6′-oxo-6′,7′-dihydrospiro[cyclopropane-1,5′-isoxazolo[4,5-f]indol]-3′-yl)cyclopropanesulfonamide] | 300 |
| CC(C)COc1ncc(N2C(=O)C3(CC3)c3cc4c(NS(=O)(=O)C(C)C)noc4cc32)cc1Cl [Example 3, N-(7′-(5-chloro-6-isobutoxypyridin-3-yl)-6′-oxo-6′,7′-dihydrospiro[cyclopropane-1,5′-isoxazolo[4,5-f]indol]-3′-yl)propane-2-sulfonamide] | 100 |
| CC(C)COc1ncc(-n2c(C(F)(F)F)cc3cc4c(NS(C)(=O)=O)noc4cc32)cc1Cl [Example 40b, N-(7-(5-chloro-6-isobutoxypyridin-3-yl)-6-(trifluoromethyl)-7H-isoxazolo[4,5-f]indol-3-yl)methanesulfonamide] | 40 |
| CC(C)COc1ncc(-c2nccc3cc4c(NS(=O)(=O)C5CC5)noc4cc23)cc1Cl [Example 50, N-(8-(5-chloro-6-isobutoxypyridin-3-yl)isoxazolo[4,5-g]isoquinolin-3-yl)cyclopropanesulfonamide] | 110 |
| Cc1cn(-c2cnc(OCC(C)C)c(Cl)c2)c2cc3onc(NS(=O)(=O)C4CC4)c3cc12 [Example 42, N-(7-(5-chloro-6-isobutoxypyridin-3-yl)-5-methyl-7H-isoxazolo[4,54]indol-3-yl)cyclopropanesulfonamide] | 70 |
| CC(C)COc1ncc(-c2nn(C)c3cc4c(NS(=O)(=O)C5CC5)noc4cc23)cc1Cl [Example 47, N-(7-(5-chloro-6-isobutoxypyridin-3-yl)-5-methyl-5H-isoxazolo[5,4-f]indazol-3-yl)cyclopropanesulfonamide] | 400 |
| CC(C)COc1ncc(-n2c(=O)n(C)c3cc4c(NS(C)(=O)=O)noc4cc32)cc1Cl [Example 34, N-(7-(5-chloro-6-isobutoxypyridin-3-yl)-5-methyl-6-oxo-6,7-dihydro-5H-imidazo[4′,5′:4,5]benzo[1,2-d]isoxazol-3-yl)methanesulfonamide] | 100 |
| CS(=O)(=O)Nc1noc2cc3c(cc12)C1(CC1)C(=O)N3c1cnc(OCC2CCCCC2)c(Cl)c1 [Example 11, N-(7′-(5-chloro-6-(cyclohexylmethoxy)pyridin-3-yl)-6′-oxo-6′,7′-dihydrospiro[cyclopropane-1,5′-isoxazolo[4,5-f]indol]-3′-yl)methanesulfonamide] | 100 |
| CC(C)COc1ncc(N2C(=O)C3(CC3)c3cc4c(NS(=O)(=O)N5CCCC5)noc4cc32)cc1Cl [Example 10, N-(7′-(5-chloro-6-isobutoxypyridin-3-yl)-6′-oxo-6′,7′-dihydrospiro[cyclopropane-1,5′-isoxazolo[4,5-f]indol]-3′-yl)pyrrolidine-1-sulfonamide] | 500 |
